Data as given in US20250026796A1 (priority 2022, published 2025).
Where no end group is shown, it is not given here.

Columns and labels:
HCoV-HKU1 E protein = HCoV-HKU1 E protein (Human coronavirus HKU1, UniProt Q5MQC8); assay type: cell-based; settings: construct co-transfection, NIH 3T3
Procedure: (§1) For the imaging experiments in FIGS. 1a-1e and 7a-7f, NIH 3T3 cells were plated at a cell density of 2.5×10^5 cells/ml. The following day, the cells were transfected using Lipofectamine 3000 reagents (Thermo-Fisher, #L3000001). 4 μg of plasmid were mixed into 125 μL of serum-free OptiMEM with 5 μL of P3000 reagent. This was then added to another 125 μL of serum-free OptiMEM containing 7.5 μL of Lipofectamine 3000. Plasmid/P3000-lipofectamine complex was incubated for 15 minutes at room temperature, and then added to the plate. The medium was replaced 20-24 h after transfection, and 1 μM of Lysosensor Green DND-189 (Thermo-Fisher, L7535) was added. The cells were incubated for 30 minutes in a 37° C., 5% CO2 incubator. The medium was replaced one final time prior to imaging. The live cell imaging was conducted on a customized/automated fluorescence microscope (Ti—U, Nikon) using an environmental chamber (TOKAI) and the culture medium to maintain normal cell culture conditions (37° C., 5% CO2, 20% O2). […] Fluorescence quantification and analysis was performed with ImageJ software and Prism 7/8/9 (GraphPad). Representative images were also gathered on a Leica DMi8 confocal microscope. The following peptides (>95% purity) were synthesized by Thermo-Fisher/Pierce: […]

SARS-CoV-2 E (2E) [1] = molecular target: T1, SARS-CoV-2 E (2E) (Severe acute respiratory syndrome coronavirus 2, UniProt P0DTC4); assay type: cell-based
HCoV-NL63 E protein [2] = molecular target: T2, HCoV-NL63 E protein (Human coronavirus NL63, UniProt Q6Q1S0); assay type: cell-based; settings: construct co-transfection, HEK 293T
SARS-CoV-2 E (2E) [3] = molecular target: T1, SARS-CoV-2 E (2E)
2E protein = 2E protein (Severe acute respiratory syndrome coronavirus 2, UniProt P0DTC4)
[4] = mouse
[5] = mouse, in vivo
MERS-CoV E protein = MERS-CoV E protein (Middle East respiratory syndrome-related coronavirus, UniProt K9N5R3); assay type: cell-based
HCoV-NL63 E protein [6] = molecular target: T2, HCoV-NL63 E protein; assay type: cell-based; settings: construct co-transfection, NIH 3T3
Procedure: as §1

T1 sequence (P0DTC4 whole entry, looked up): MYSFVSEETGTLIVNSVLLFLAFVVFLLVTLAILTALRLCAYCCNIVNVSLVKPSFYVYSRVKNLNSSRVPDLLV
T2 sequence (Q6Q1S0 whole entry, looked up): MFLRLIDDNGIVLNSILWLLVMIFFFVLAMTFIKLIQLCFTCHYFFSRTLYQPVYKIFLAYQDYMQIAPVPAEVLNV
MERS-CoV E protein, sequence (K9N5R3 whole entry, looked up): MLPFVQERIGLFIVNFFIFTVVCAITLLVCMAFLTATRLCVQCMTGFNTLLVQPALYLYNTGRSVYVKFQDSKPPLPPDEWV
2E protein, sequence (P0DTC4 whole entry, looked up): as the sequence (P0DTC4 whole entry, looked up) above
HCoV-HKU1 E protein, sequence (Q5MQC8 whole entry, looked up): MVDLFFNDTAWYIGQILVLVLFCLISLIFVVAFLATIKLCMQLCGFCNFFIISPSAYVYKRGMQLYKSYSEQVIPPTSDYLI

Substance: VDLFFNETAWYIGQILV [HCoV-HKU1 MY18 D8E]
- DND-189 fluorescence (proton homeostasis), HCoV-HKU1 E (HCoV-HKU1 E protein): could significantly rescue the phenotypes in proton homeostasis

Substance: RRRRRRMYSFVSEETGTLIVNSVL [6Arg-MY18]
- Relative fluorescent intensity of DND-189 dye compared to mock (SARS-CoV-2 E (2E) [1]): significantly lower than mock

Substance: RQIKIWFQNRRMKWKKMYSFVSEETGTLIVNSVL [Pen-MY18]
- Relative fluorescent intensity of DND-189 dye compared to mock (SARS-CoV-2 E (2E) [1]): significantly lower than mock

Substance: MFLRLIDDNGIVLNSILW [HCoV-NL63 MY18 WT]
- Relative NFAT-FLuc/TK-RLuc activity (effect of NL63-E) (HCoV-NL63 E protein [2]): could significantly reduce the effect of each E on NFAT/AP-1 reporter

Substance: MYSFVSDDTGTLIVNSVL [MY18-2ED]
- Relative NFAT-FLuc/TK-RLuc activity (effect of 2E on NFAT/AP-1 pathway) (SARS-CoV-2 E (2E) [3]): significantly improves the inhibitory effect

Substance: MYSFVSEETGTLIVNSVL [MY18]
- Inhibition of viral toxicity (cytopathic effect) (SARS-CoV-2 WA1 virus): moderate inhibitory effect on the virus
- Relative NFAT-FLuc/TK-RLuc activity (effect of 2E on NFAT/AP-1 pathway) (SARS-CoV-2 E (2E) [3]): significantly suppresses the effect of 2E on the NFAT/AP-1 pathway
- Co-localization with 2E proteins (2E protein): co-localized with 2E proteins
- Effect of synthetic peptide on 2E in DND-189-based pH imaging (SARS-CoV-2 E (2E) [1]): does not have any effect on 2E

Substance: GRKKRRQRRRPPQMYSFVSDDTGTLIVNSVL [iPep-SARS2-E]
- IC50 (SARS-CoV-2 WA1 virus; WA1 virus): ~200 nM
- Toxicity in vivo [4]: no obvious toxicity
- Body weight ([4]; in vivo): did not find that there are differences
- C5a (inflammation marker) ([4]; in vivo): did not find that there are differences
- Cxc112 (inflammation marker) ([4]; in vivo): did not find that there are differences

Substance: GRKKRRQRRRPPQ-MYSFVSDDTGTLIVNSVL-L[C]AlexaFluo594 [TAT-MY18-2ED-Alexa Fluor 594]
- Penetration into cells (Vero-E6 cells): can penetrate into these cells
- Cell-penetrating "on" kinetics (NIH 3T3 cells): faster cell-penetrating than N-terminal version
- Detection of fluorescent peptide in nasal tissues [5]: can permeate and is detectable in mouse nasal tissues
- Detection of fluorescent peptide in lung tissues ([5]; iv): can permeate and is detectable in mouse lung tissues

Substance: MLPFVQERIGLFIVNFFI [MERS-CoV MY18 WT]
- Relative NFAT-FLuc/TK-RLuc activity (effect of MERS-E) (MERS-CoV E protein): could significantly reduce the effect of each E on NFAT/AP-1 reporter

Substance: GRKKRRQRRRPPQMYSFVSEETGTLIVNSVL [TAT-MY18]
- Effect of synthetic peptide on 2E in DND-189-based pH imaging (SARS-CoV-2 E (2E) [1]): effective cell-penetrating peptide
- Relative fluorescent intensity of DND-189 dye compared to mock (SARS-CoV-2 E (2E) [1]): not different from mock

Substance: MFLRLIEEDGIVLNSILW [HCoV-NL63 MY18 2DE & N9D]
- Relative NFAT-FLuc/TK-RLuc activity (effect of NL63-E) (HCoV-NL63 E protein [2]): effective to inhibit the cellular toxicity
- DND-189 fluorescence (proton homeostasis), HCoV-NL63 E (HCoV-NL63 E protein [6]): could significantly rescue the phenotypes in proton homeostasis
